16 molecules from ChEMBL document CHEMBL1156285, “Stereochemistry-activity relationship of orally active tetralin S1P agonist prodrugs” (Bioorg Med Chem Lett, 2010) can be followed below.

The source made the active and inactive calls. The calls are words filed in the database; no cut-off is given here.

Broadly, the ED50 is the dose at which the effect has come halfway, by size or by number of responders. One may read the EC50 as the concentration that produces a half-maximal response. As a reminder, the Vd is the apparent volume that relates the amount in the body to the concentration in plasma or blood. The term clearance denotes the rate of elimination divided by the concentration.

Data set [1] addresses T1, Sphingosine kinase 2 (Mus musculus) (UniProt Q9JIA7).
T1 sequence (whole entry): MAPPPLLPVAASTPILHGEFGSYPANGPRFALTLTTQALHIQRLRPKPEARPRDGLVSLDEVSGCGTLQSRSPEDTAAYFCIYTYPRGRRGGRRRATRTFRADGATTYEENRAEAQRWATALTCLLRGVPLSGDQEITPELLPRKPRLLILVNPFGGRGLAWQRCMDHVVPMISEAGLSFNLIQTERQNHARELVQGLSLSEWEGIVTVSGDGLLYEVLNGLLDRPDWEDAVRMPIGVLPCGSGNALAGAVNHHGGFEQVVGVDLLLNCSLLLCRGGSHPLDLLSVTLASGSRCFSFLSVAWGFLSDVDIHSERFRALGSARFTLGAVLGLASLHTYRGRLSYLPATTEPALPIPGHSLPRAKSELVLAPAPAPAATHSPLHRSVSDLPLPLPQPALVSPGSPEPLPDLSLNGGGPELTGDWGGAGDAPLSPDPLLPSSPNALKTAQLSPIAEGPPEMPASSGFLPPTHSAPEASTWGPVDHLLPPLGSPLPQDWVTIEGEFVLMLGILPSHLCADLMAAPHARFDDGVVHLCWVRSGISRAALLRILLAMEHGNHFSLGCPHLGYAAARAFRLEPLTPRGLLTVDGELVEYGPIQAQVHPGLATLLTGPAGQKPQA
Put plainly: Induction of mouse SphK2 phosphorylation.

The species entered for data set [2] is Mus musculus. In words: Immunosuppressive activity in mouse assessed as induction of lymphopenia. It is filed as functional.
Data set [3] has as its target T2, Sphingosine kinase 2 (Homo sapiens) (UniProt Q9NRA0).
T2 sequence (whole entry): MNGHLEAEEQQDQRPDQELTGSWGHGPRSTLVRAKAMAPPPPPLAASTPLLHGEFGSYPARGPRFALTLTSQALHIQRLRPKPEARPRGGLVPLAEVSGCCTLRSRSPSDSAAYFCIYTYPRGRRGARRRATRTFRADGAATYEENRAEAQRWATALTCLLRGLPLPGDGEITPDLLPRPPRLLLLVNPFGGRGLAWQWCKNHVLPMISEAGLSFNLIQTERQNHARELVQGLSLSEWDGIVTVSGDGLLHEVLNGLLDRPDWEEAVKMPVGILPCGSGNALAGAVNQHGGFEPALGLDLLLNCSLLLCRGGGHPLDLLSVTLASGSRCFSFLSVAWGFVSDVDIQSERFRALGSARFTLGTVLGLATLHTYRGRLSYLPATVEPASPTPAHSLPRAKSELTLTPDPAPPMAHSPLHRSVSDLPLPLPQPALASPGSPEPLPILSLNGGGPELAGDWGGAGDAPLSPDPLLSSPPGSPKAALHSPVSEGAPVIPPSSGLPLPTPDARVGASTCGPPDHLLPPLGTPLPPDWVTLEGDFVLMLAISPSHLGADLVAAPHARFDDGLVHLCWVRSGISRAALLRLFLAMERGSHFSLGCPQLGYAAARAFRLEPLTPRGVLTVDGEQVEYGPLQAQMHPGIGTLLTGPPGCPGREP
Put plainly: Induction of human SphK2 phosphorylation. Details: concentration or dose not given beside the values.

For data set [4], the target named is T3, Sphingosine 1-phosphate receptor 3 (Homo sapiens, UniProt Q99500). In words: Agonist activity at human S1P3 receptor assessed as effect on calcium mobilization by Gi dependent whole cell assay. It is filed as functional.
T3 sequence (Q99500 whole entry): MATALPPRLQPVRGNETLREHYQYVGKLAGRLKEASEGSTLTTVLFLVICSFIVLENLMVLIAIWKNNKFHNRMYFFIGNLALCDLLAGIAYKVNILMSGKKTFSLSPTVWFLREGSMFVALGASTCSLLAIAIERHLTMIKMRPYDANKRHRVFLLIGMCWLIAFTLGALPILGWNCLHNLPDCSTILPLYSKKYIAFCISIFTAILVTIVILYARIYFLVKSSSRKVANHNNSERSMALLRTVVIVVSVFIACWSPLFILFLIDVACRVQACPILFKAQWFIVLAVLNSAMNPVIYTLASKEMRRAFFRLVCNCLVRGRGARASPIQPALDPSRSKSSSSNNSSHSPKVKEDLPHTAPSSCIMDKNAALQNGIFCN
Data set [5] has as its target T3, Sphingosine 1-phosphate receptor 3. In words: Agonist activity at human S1P3 receptor assessed as effect on calcium mobilization by Gq dependent whole cell assay. It is filed as functional.
Data set [6] addresses T4, Sphingosine 1-phosphate receptor 1 (Homo sapiens, UniProt P21453). Put plainly: Agonist activity at human S1P1 receptor assessed as effect on calcium mobilization by Gi dependent whole cell assay. It is filed as functional. For orientation: Calcium flux is commonly read through the fluorescence of an indicator in the cells.
In data set [7] the target is T4, Sphingosine 1-phosphate receptor 1. In words: Agonist activity at human S1P1 receptor assessed as effect on calcium mobilization by Gq dependent whole cell assay. The data set is classed as functional.
Data set [8] addresses Sphingosine 1-phosphate receptor 2 (Homo sapiens, UniProt O95136). Put plainly: Agonist activity at human S1P2 receptor assessed as effect on calcium mobilization by Gq dependent whole cell assay. The data set is classed as functional.
Data set [9] concerns the target Sphingosine 1-phosphate receptor 5 (Homo sapiens, UniProt Q9H228). Put plainly: Agonist activity at human S1P5 receptor assessed as effect on calcium mobilization by Gq dependent whole cell assay. It is filed as functional.
The target of data set [10] is T5, Sphingosine 1-phosphate receptor 4 (Homo sapiens, UniProt O95977).
T5 sequence (O95977 whole entry): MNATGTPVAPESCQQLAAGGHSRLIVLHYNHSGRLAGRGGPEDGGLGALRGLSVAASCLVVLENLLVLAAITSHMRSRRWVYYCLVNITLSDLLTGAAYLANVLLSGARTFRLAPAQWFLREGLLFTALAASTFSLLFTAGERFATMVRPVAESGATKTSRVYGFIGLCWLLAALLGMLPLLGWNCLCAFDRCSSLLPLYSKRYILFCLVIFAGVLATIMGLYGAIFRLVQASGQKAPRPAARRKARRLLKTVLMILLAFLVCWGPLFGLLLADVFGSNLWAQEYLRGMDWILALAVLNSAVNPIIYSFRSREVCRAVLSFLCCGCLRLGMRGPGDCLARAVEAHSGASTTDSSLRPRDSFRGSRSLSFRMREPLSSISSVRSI
Put plainly: Agonist activity at human S1P4 receptor assessed as effect on calcium mobilization by Gq dependent whole cell assay. The data set is classed as functional.

The subject of data set [11] is Mus musculus. In words: Oral bioavailability in mouse at 2 mg/kg after 72 hrs. It is filed as ADME, organism-based. The note with it: in vivo.
The species entered for data set [12] is Mus musculus. Put plainly: Immunosuppressive activity in mouse assessed as induction of […]. The data set is classed as functional.
For data set [13], the system named is Mus musculus. In words: Half life in mouse at 2 mg/kg after 72 hrs. The data set is classed as ADME, organism-based. Details: dose 2 mg/kg. The note with it: in vivo.
In data set [14] the test system is Mus musculus. In words: Immunosuppressive activity in mouse assessed as induction of lymphopenia at 2 mg/kg after 72 hrs. The data set is classed as functional, organism-based. Also noted: dose 2 mg/kg.
The test system of data set [15] is Mus musculus. Put plainly: Half life in mouse at 1 mg/kg after 1 week. It is filed as ADME, organism-based. Details: dose 1 mg/kg. The conditions noted are these: in vivo, 168 h.
For data set [16], the system named is Mus musculus. In words: Oral bioavailability in mouse at 1 mg/kg after 1 week. The note with it: in vivo, 168 h. The data set is classed as ADME, organism-based.
Data set [17] relates to Mus musculus. In words: Vd in mouse at 1 mg/kg after 1 week. The conditions noted are these: in vivo, 168 h.
Data set [18] can be described thus: Clearance in mouse at 1 mg/kg after 1 week. Details: dose 1 mg/kg. The data set is classed as ADME, organism-based. The conditions noted are these: in vivo.
Data set [19] relates to Mus musculus. In words: Immunosuppressive activity in mouse assessed as induction of lymphopenia at 1 mg/kg after 1 week. Details: dose 1 mg/kg. It is filed as functional, organism-based.

Sphingosine 1-phosphate receptor 5, sequence (Q9H228 whole entry): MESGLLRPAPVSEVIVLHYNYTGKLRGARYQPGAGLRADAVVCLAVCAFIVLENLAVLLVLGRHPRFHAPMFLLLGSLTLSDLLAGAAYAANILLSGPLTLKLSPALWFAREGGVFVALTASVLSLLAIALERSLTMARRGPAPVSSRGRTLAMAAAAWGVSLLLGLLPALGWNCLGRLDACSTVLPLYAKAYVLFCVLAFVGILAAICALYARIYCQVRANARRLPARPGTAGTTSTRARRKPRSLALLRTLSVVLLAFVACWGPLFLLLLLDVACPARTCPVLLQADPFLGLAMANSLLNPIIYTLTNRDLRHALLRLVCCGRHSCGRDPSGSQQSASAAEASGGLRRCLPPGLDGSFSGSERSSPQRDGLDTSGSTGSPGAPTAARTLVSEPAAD
T4 sequence (P21453 whole entry): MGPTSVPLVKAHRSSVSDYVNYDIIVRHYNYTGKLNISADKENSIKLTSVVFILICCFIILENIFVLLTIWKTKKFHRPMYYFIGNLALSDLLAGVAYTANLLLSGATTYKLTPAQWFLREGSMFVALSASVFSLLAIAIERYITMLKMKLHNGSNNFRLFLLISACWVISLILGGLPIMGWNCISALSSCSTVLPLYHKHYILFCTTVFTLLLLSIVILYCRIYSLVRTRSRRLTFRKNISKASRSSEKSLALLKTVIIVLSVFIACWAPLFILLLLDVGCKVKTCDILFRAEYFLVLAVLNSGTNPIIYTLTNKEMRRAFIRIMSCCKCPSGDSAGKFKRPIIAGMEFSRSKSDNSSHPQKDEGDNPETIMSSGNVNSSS
Sphingosine 1-phosphate receptor 2, sequence (O95136 whole entry): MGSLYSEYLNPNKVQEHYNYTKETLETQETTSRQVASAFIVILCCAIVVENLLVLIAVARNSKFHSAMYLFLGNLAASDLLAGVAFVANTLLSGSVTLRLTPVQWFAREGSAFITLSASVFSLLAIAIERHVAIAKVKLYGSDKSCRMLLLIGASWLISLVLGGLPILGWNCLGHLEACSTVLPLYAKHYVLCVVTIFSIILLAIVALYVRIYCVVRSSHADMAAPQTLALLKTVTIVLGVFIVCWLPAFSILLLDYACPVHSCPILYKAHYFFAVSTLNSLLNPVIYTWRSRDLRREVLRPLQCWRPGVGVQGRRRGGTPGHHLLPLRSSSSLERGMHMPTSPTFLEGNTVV

With `CCCCCCCCc1ccc(CCC(N)(CO)CO)cc1` [FINGOLIMOD], the Activity in [1] turned out to be 87%; in data set [3], 76%. Besides, the 50% effective dose (ED50) in the data set filed under Mus musculus [2] was determined as 0.03 mg/kg.

For the molecule `CCCCCCCCc1ccc2c(c1)CC[C@H]([C@](C)(N)COP(=O)(O)O)C2`, the EC50 in [4] was above 5000 nM; in data set [5], 922 nM; in data set [6], 13.6 nM; in data set [7] it was above 5000 nM.

For `CCCCCCCCc1ccc2c(c1)CC[C@@H](C(N)(CO)COP(=O)(O)O)C2` (single isomer, unassigned; isomer 1), the EC50 was above 5000 nM in data set [8]; 0.33 nM in [9]; 0.215 nM in [4]; 18.7 nM in [5]; 5.39 nM in data set [10]; 0.077 nM in data set [6]. Further, the EC50 in data set [7] amounted to 1.95 nM.

Turning to `CCCCCCCCc1ccc2c(c1)CC[C@H]([C@](C)(N)CO)C2`, the ED50 in the data set listed under Mus musculus [2] is above 5 mg/kg. This molecule also displayed an Activity in [3] of 0%.

Regarding `CCCCCCCCc1ccc2c(c1)CC[C@@H](C(N)(CO)CO)C2`, the Activity in [1] was 4%; in the data set listed under Mus musculus [12], 3%; in data set [3], 9%. Moreover, the 50% effective dose (ED50) in the data set listed under Mus musculus [2] stood at 0.2 mg/kg. Besides, the F in the data set with Mus musculus [11] came out at 55%. The molecule further yielded a t1/2 in the data set with Mus musculus [13] of 16 h. In addition, in the data set on Mus musculus [14], the result was Active.

For `CCCCCCCCc1ccc2c(c1)CC[C@@H](C(N)(CO)COP(=O)(O)O)C2` (stereo in doubt), the EC50 in [8] was above 5000 nM; in [9], 33 nM; in data set [4], above 5000 nM; in [5] it was 25.7 nM; in data set [10], 41.4 nM; in [6], 0.344 nM. Moreover, the concentration giving a half-maximal response (EC50) in data set [7] is 133 nM.

Take `CCCCCCCCc1ccc2c(c1)CC[C@@H]([C@@](C)(N)CO)C2`: in the data set filed under Mus musculus [2], the ED50 was determined as 0.8 mg/kg. The molecule further came in with an Activity in data set [3] of 38%.

For the molecule `CCCCCCCCc1ccc(CC[C@@](N)(CO)COP(=O)(O)O)cc1`, the EC50 in [10] stood at 137 nM.

Take `CCCCCCCCc1ccc2c(c1)CC[C@@H]([C@@](C)(N)COP(=O)(O)O)C2`: the EC50 in data set [4] is 0.15 nM; in [5], 38.2 nM; in data set [6], 0.088 nM; in data set [7] it was 5.62 nM.

In the case of `CCCCCCCCc1ccc2c(c1)CC[C@@H]([C@](C)(N)COP(=O)(O)O)C2`, the EC50 is above 5000 nM in data set [4] and 19.7 nM in data set [6].

As for `CCCCCCCCc1ccc(CC[C@](N)(CO)COP(=O)(O)O)cc1` [FTY720-P], the EC50 in [10] came out at 22.2 nM.

As to `CCCCCCCCc1ccc2c(c1)CC[C@H]([C@@](C)(N)COP(=O)(O)O)C2`, the EC50 in data set [8] was above 5000 nM; in [9], 1.49 nM; in data set [4], 0.286 nM; in data set [5], 97.4 nM; in data set [10], 16 nM; in data set [6] it was 0.018 nM. The EC50 in data set [7] worked out at 1.79 nM.

Consider `CCCCCCCCc1ccc2c(c1)CC[C@@H]([C@](C)(N)CO)C2`, for which the Activity in [3] was determined as 0%.

Take `CCCCCCCCc1ccc2c(c1)CC[C@H](C(N)(CO)CO)C2`: the ED50 in the data set listed under Mus musculus [2] came out at 3.8 mg/kg. This molecule also came in with an Activity in data set [3] of 3%.

For `CCCCCCCCCCCCC/C=C/[C@@H](O)[C@@H](N)COP(=O)(O)O`, the EC50 in data set [4] worked out at 0.449 nM; in [6], 0.027 nM.

Turning to `CCCCCCCCc1ccc2c(c1)CC[C@H]([C@@](C)(N)CO)C2`, the t1/2 in the data set with Mus musculus [15] was found to be 36 h. The F in the data set with Mus musculus [16] is 55%. The molecule also registered a Vd in the data set on Mus musculus [17] of 16 L/kg. Moreover, the Activity in data set [1] is 90%; in the data set filed under Mus musculus [12], 63%; in [3], 77%. In the data set filed under Mus musculus [2], the ED50 stood at 0.1 mg/kg. In addition, the clearance in [18] came to 5.5 mL/min/kg. Further, the outcome in the data set with Mus musculus [19] was Active.
